Assay results from the supplement of paper PMC10307832.

Columns and labels:
Experiment in all cases: relative viability (nuclei count vs DMSO), 5 days (fraction); higher = more cells survive
Cediranib + AZD7762 = compound: COc1cc2c(Oc3ccc4[nH]c(C)cc4c3F)ncnc2cc1OCCCN1CCCC1 [Cediranib] + NC(=O)Nc1cc(-c2cccc(F)c2)sc1C(=O)N[C@H]1CCCNC1 [AZD7762] (partner 0.2 µM)
In short: (§1)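 Values are medians from duplicate plates. Each reflects relative viability, defined as the nuclei count of treated wells over that of vehicle wells. Lung cancer cell lines in 1536-well plates were pin-tool dosed one day after seeding with one drug alone or with a fixed anchor-drug dose plus five library-drug doses (not always all listed) in √10 steps, then fixed, stained and imaged at 4× after 5 days.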

Decitabine + Linsitinib = compound: Nc1ncn([C@H]2C[C@H](O)[C@@H](CO)O2)c(=O)n1 [Decitabine] + C[C@]1(O)C[C@@H](c2nc(-c3ccc4ccc(-c5ccccc5)nc4c3)c3c(N)nccn32)C1 [Linsitinib] (partner 1 µM)
In short: as §1

Decitabine + AZD7762 = compound: Nc1ncn([C@H]2C[C@H](O)[C@@H](CO)O2)c(=O)n1 [Decitabine] + NC(=O)Nc1cc(-c2cccc(F)c2)sc1C(=O)N[C@H]1CCCNC1 [AZD7762] (partner 0.2 µM)
In short: as §1

Halofuginone + Dasatinib = compound: O=C(C[C@H]1NCCC[C@@H]1O)Cn1cnc2cc(Br)c(Cl)cc2c1=O (racemic) [Halofuginone] + Cc1nc(Nc2ncc(C(=O)Nc3c(C)cccc3Cl)s2)cc(N2CCN(CCO)CC2)n1 [Dasatinib] (partner 0.075 µM)
In short: as §1

Cell Line | relative viability (Cediranib + AZD7762; first compound 0.04 µM) | relative viability (Cediranib + AZD7762; first compound 0.1265 µM) | relative viability (Cediranib + AZD7762; first compound 0.4 µM) | relative viability (Cediranib + AZD7762; first compound 1.265 µM) | relative viability (Cediranib + AZD7762; first compound 4 µM) | relative viability (Decitabine + Linsitinib; first compound 0.04 µM) | relative viability (Decitabine + Linsitinib; first compound 0.1265 µM) | relative viability (Decitabine + Linsitinib; first compound 0.4 µM) | relative viability (Decitabine + Linsitinib; first compound 1.265 µM) | relative viability (Decitabine + Linsitinib; first compound 4 µM) | relative viability (Decitabine + AZD7762; first compound 0.04 µM) | relative viability (Decitabine + AZD7762; first compound 0.1265 µM) | relative viability (Decitabine + AZD7762; first compound 0.4 µM) | relative viability (Decitabine + AZD7762; first compound 1.265 µM) | relative viability (Decitabine + AZD7762; first compound 4 µM) | relative viability (Halofuginone + Dasatinib; first compound 0.001 µM) | relative viability (Halofuginone + Dasatinib; first compound 0.003162 µM) | relative viability (Halofuginone + Dasatinib; first compound 0.01 µM) | relative viability (Halofuginone + Dasatinib; first compound 0.03162 µM) | relative viability (Halofuginone + Dasatinib; first compound 0.1 µM)
NCI-H1915 | 0.657 | 0.8 | 0.715 | 0.709 | 0.719 | 0.586 | 0.396 | 0.353 | 0.286 | 0.276 | 0.296 | 0.266 | 0.217 | 0.195 | 0.201 | 0.308 | 0.332 | 0.322 | 0.294 | 0.23
NCI-H1944 | 0.487 | 0.586 | 0.481 | 0.408 | 0.582 | 1.06 | 0.962 | 0.934 | 0.667 | 0.642 | 0.331 | 0.289 | 0.29 | 0.218 | 0.231 | 0.229 | 0.236 | 0.209 | 0.207 | 0.155
NCI-H1975 | 0.687 | 0.73 | 0.782 | 0.799 | 0.602 | 0.706 | 0.525 | 0.346 | 0.326 | 0.369 | 0.451 | 0.451 | 0.441 | 0.465 | 0.403 | 0.375 | 0.324 | 0.348 | 0.231 | 0.117
NCI-H1993 |  | 0.923 | 0.819 | 0.588 | 0.755 | 0.767 | 0.745 | 0.763 | 0.718 | 0.659 | 0.654 | 0.796 | 0.644 | 0.641 | 0.703 | 0.619 | 0.558 | 0.562 | 0.532 | 0.434
NCI-H2085 | 0.966 | 0.987 | 0.921 | 1.11 | 0.997 | 0.744 | 0.615 | 0.508 | 0.392 | 0.372 | 0.757 | 0.852 | 0.655 | 0.527 | 0.615 | 0.252 | 0.226 | 0.259 | 0.269 | 0.237
NCI-H2087 | 1.08 | 1.34 | 1.26 | 1.23 | 1.43 | 0.659 | 0.678 | 0.591 | 0.41 | 0.384 | 0.853 | 0.719 | 0.58 | 0.493 | 0.499 | 0.834 | 1.16 | 0.9 | 0.808 | 0.522
